Measurements as given in US6420563B1, “Small molecule modulators of G protein-coupled receptor six” (Arena Pharmaceuticals, Inc., priority 1998, dated 2002).
Where two headings read alike, the source gives them in different places.

Tests used:
GPR6:Gsα-Fusion Protein = target: T1, GPR6:Gsα-Fusion Protein (Homo sapiens, UniProt P46095); assay: [35S]GTPγS membrane binding assay (Example 4A); assay type: biochemical
T1 construct: expressed in transfected cells
Summary of the method: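 Membranes from stable 293 cells expressing the fusion protein were pre-incubated 5-10 min at RT with compounds (10 μM final) in GDP buffer. [35S]GTPγS (0.6 nM as added) was then bound for 60 min at RT and counted after centrifugation. Inverse agonism was scored as reduced receptor-driven GTPγS binding.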

[1] = Basal food/water intake and body weight in non-food deprived rats, IP administration; assay type: in vivo, rat; conditions: for food consumed over a period of 4 hrs: dark cycle, vehicle 9 g
Procedure: In this test, animals were not deprived of food but were instead observed for normal activity.
Animals were administered ARE112 at 0, 6.75, 13.5, 27 and 54 mg/kg, IP 30 min prior to the beginning of their dark cycle (i.e. 6:30 pm) and were then exposed to standard rat chow pellets (i.e. 30 min after compound administration) and observed for a period of 15.5 hr post administration. […] For example, the vehicle treated animals consumed 9 g of food over a period of 4 hrs, whereas animals treated with dose of 13.5 mg/kg and 54 mg/kg consumed less than half this amount over this same period (4 and 2 g of food, respectively). […] (See, FIGS. 6B and 6C).

[2] = Food/water intake and body weight in 24-hour food deprived rats, oral gavage (PO); assay type: in vivo, rat
Summary of the method: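 Rats food-deprived 24 h, then dosed by oral gavage (6.75–54 mg/kg, or 100–200 μmol/kg for analogs). Food intake tracked over hours post-dose (2.5 h up to 8 h) along with body weight gain, compared with vehicle-treated rats.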

[3] = 100 μmol/kg PO, second assay, Table D, vehicle 19.25

T1 sequence (P46095 with tags, fused parts or gaps): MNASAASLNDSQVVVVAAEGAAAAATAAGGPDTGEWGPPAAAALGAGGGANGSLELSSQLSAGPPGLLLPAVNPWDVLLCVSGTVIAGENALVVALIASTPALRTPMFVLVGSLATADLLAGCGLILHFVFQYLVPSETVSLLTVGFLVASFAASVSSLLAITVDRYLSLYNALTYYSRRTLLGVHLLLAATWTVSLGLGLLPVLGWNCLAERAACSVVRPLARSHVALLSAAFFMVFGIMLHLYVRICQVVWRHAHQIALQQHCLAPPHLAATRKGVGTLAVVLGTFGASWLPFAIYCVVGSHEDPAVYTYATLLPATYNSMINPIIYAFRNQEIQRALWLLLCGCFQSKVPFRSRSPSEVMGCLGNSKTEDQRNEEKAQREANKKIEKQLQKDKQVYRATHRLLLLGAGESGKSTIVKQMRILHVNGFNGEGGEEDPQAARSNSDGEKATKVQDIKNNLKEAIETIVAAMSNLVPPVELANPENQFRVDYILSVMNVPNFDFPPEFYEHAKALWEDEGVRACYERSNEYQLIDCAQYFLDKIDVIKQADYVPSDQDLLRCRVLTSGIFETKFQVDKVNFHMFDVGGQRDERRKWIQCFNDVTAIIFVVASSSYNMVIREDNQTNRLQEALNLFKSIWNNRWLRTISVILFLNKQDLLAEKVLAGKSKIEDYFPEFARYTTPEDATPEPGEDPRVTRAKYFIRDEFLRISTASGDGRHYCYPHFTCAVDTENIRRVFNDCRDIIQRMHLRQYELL

What does the source list for `O=C(N=C1SSC2=NCCN21)c1cccs1` [ARE112, N-(5,6-dihydro-3H-imidazo[2,1-c]-1,2,4-dithiazol-3-ylidene)-thiophen-2-carboxamide]?
IC50 (GPR6:Gsα-Fusion Protein; mean +/- standard deviation (number of assays in brackets), read-out: IC50 Values GTP Assay Example 4A): 0.42 µM; IC50 (GPR6:Gsα-Fusion Protein; representative IC50 curve, assay protocol of Example 4A, read-out: IC50 value against the GPR6 receptor (FIG. 4)): 0.15 µM; food consumed over a period of 4 hrs ([1]; 13.5 mg/kg IP): 4 g; food consumed over a period of 4 hrs ([1]; 54 mg/kg IP): 2 g; body weight gain ([1]; IP, non-deprived rats): decrease; water intake ([1]; IP, non-deprived rats): decrease; Cumulative Food Intake (g) (8 hr post administration) ([2]; 100 μmol/kg PO, second assay, Table D, vehicle 14.0): 8.1 g; Body Weight Gain (g) (6 hr post administration) [2, 3]: 6.25 g; Cumulative Water Intake (g) (6 hr post administration) [2, 3]: 10.5 g; body weight gain (FIG. 10C) ([2]; 100 μmol/kg oral, vehicle about 19.5 grams): 6 grams; food consumed ([2]; 27 mg/kg oral gavage, 2.5 hours, vehicle about 6 grams): about 6 grams; food consumed ([2]; 27 mg/kg oral gavage, 8 hours post-administration, vehicle about 14 grams): about 8 grams; food consumed ([2]; 54 mg/kg oral gavage, 2.5 hours, vehicle about 6 grams): ~4 grams; food consumed ([2]; 54 mg/kg oral gavage, 8 hours post-administration, vehicle about 14 grams): about 6 grams
